Measurements as given in US20230279426A1, “MODIFIED VIRAL COMPOSITIONS FOR VIRAL TRANSDUCTION” (Lycia Therapeutics, Inc., priority 2020, published 2023).

Experiments:
[1] = molecular target: T1, recombinant human CI-M6PR protein (Homo sapiens, UniProt P11717); test: M6PR binding ELISA of matuzumab ligand-linker conjugates; conditions: conjugates of ligand linkers
T1 construct: purchased R&D 6418-GR-050
Experimental: Binding affinity of matuzumab conjugated to ligand-linkers for M6PR w as determined by ELISA using the following protocol: Nunc black solid bottom MaxiSorp plates were allowed to incubate overnight at 4° C. coated with 1 μg/mL of recombinant human CI-M6PR protein (R&D, 6418-GR-050) in 50 μL PBS. The next day, coating was decanted and plates were washed 3× with PBS. Wells were blocked with 350 μL of 3% BSA-PBS for 1 hour at room temperature. Blocking solution was removed and matuzumab conjugates (matuzumab-Compound I-7 (d4), matuzumab-Compound I-7 (d8), matuzumab-Compound I-8 (d4), matuzumab-Compound I-9 (d4), matuzumab-Compound I-11 (d4) and matuzumab-Compound I-12 (d4)) and their respective isotype controls (human IgG (bioxcell, BP0297) conjugated to the ligand-linker compounds being tested) were diluted in 3% BSA-PBS. 50 µL of diluted conjugates were added to the plate and allowed to incubate at room temperature for 2 hours. After incubation, solutions in plate were decanted and washed with […] of 0.05% PBS-Tween20 three times, drying the plate each wash on a clean paper towel. 50 μL of peroxidase AffiniPure Mouse Anti-Human IgG (Jackson Immuno, 209-035-088) diluted in 3% BSA-PBS to 0.2 μg/mL was added to the plate and allowed to incubate for 1 hour at room temperature in the dark. […]

Jurkat cells = test: Intracellular uptake of anti-IgG2a conjugates with IgG2a-Alexa488 in Jurkat cells; assay type: cell-based, human; conditions: 1 h and 24 h
Experimental: Anti-IgG2a conjugates were generated by adding anti-IgG2a rIgG1 (Southern Biotech, Cat #1155-ol) to a solution of PBS buffer pH 7.2 containing 10% DMSO (final antibody concentration 5 mg/mL). Linker (e.g., Compound I-7) was added (at a 5-40× linker:antibody molar ratio), and the reaction was incubated at room temperature for 3 hours. Excess linker was removed by size exclusion chromatography (Superdex 200 Increase. Cat i28990944) and final DAR, was determined by LC/MS (Sciex 5600+. Acquity UPLC BEH C4 column. Cat #186004495). The resulting rIgG1 antibody conjugates were used in the experiments below.
The anti-IgG2a conjugates were bound to IgG2a-Alexa488, as follows: equal molar ratios of anti-IgG2a and IgG2a-Alexa488 were added in tissue culture media for 30 minutes at room temperature. The resulting anti-IgG2a:IgG2a antibody-Alexa488 compositions were added to Jurkat cells (100k cells/50 ul per well, n=2), and Alexa488 fluorescence levels were measured (via Alexa488 measurement) at 1 hour and 24 hours by flow cytometry. Because Alexa488 accumulates in cells, this presents a way to measure total intracellular uptake by cells over time.

T1 sequence (P11717 41-2491): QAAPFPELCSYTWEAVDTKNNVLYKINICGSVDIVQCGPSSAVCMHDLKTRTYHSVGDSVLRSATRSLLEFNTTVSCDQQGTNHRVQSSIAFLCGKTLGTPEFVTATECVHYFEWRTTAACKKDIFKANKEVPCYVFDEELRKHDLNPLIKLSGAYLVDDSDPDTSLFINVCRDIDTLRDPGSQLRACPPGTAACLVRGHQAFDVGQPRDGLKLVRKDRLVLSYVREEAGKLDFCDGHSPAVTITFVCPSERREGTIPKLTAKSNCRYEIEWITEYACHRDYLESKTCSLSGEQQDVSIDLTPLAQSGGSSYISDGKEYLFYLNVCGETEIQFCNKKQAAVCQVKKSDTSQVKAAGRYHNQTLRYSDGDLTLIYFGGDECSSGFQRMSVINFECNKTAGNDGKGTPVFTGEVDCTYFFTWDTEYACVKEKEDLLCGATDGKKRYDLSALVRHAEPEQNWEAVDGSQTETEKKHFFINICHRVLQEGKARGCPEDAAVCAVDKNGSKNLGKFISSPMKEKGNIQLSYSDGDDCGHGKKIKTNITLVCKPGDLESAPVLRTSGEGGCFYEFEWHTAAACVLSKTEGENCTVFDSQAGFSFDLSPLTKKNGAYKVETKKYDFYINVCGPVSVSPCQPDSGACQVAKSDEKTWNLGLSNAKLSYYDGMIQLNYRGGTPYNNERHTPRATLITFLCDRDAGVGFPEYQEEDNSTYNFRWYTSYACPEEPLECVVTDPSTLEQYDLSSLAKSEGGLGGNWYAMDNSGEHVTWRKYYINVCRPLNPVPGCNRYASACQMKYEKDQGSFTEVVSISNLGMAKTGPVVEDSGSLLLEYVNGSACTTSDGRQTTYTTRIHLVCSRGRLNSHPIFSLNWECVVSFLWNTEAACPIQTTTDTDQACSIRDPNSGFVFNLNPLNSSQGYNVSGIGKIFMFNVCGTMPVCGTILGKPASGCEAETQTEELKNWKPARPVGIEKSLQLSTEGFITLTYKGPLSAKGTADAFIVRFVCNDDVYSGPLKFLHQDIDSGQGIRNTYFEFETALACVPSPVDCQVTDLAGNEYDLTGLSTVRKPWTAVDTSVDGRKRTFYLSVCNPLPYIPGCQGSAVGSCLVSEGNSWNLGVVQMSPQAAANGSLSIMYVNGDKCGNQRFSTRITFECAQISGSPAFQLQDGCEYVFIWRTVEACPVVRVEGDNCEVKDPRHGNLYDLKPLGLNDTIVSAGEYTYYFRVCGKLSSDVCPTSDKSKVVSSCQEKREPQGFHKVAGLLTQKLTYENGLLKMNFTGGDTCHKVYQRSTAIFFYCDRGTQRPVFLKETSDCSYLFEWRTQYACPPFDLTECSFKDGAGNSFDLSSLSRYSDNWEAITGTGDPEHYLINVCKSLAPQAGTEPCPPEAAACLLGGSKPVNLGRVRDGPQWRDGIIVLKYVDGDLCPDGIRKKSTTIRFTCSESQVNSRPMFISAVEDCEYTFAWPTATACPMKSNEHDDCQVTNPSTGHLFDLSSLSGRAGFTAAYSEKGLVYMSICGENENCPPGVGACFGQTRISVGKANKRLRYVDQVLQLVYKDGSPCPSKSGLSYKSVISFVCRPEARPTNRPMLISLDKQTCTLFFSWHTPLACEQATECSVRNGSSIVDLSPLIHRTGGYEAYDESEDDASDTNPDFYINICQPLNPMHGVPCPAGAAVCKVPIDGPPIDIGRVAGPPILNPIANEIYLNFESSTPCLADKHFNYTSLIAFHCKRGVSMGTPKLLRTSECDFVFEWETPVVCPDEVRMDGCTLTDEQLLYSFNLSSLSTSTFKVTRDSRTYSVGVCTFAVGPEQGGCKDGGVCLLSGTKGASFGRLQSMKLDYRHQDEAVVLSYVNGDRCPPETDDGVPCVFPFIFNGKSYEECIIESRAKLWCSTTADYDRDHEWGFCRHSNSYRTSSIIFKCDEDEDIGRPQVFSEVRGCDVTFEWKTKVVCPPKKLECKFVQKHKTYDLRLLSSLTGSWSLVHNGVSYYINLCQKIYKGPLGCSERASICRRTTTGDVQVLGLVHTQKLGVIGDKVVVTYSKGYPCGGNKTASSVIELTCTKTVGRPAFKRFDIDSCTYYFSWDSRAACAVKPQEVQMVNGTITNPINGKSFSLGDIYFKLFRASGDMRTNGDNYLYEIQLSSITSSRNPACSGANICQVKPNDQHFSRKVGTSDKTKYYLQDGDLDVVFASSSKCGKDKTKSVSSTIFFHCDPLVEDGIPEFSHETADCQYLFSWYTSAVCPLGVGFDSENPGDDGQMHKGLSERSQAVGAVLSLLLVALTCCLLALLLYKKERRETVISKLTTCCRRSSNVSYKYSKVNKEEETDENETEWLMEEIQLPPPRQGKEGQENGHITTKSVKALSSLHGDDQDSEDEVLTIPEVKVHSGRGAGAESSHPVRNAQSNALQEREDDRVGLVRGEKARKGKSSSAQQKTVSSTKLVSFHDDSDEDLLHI

Q: How did the “binding affinity to M6PR relative to Compound I-7” value [1] turn out when `O=C(CCOCCn1cc(CCO[C@H]2O[C@H](CCP(=O)(O)O)[C@@H](O)[C@H](O)[C@@H]2O)nn1)Oc1c(F)c(F)c(F)c(F)c1F` [Compound I-11] was run?
A: weaker binding affinity to M6PR than Compound I-7

Q: What about the “intracellular uptake (Alexa488 fluorescence)” value (Jurkat cells) of the same compound?
A: sufficiently robust uptake

Q: What does the source list for `O=C(CCN1C(=O)C=CC1=O)NCCOCCOCCOCCn1cc(CCO[C@H]2O[C@H](CCP(=O)(O)O)[C@@H](O)[C@H](O)[C@@H]2O)nn1` [Compound I-10]?
A: binding affinity to M6PR relative to Compound I-7 [1]: weaker binding affinity to M6PR than Compound I-7; intracellular uptake (Alexa488 fluorescence) (Jurkat cells): sufficiently robust uptake
